{
  "source": "patent US11892406B2",
  "about": "“Method and device for assaying the interaction and dynamics of permeation of a molecule and a lipid bilayer” (DUBLIN CITY UNIVERSITY, priority 2018, dated 2024)",
  "type_in_all_cases": "in vitro ADME",
  "key": {"[1]": {"experiment": "Metal enhanced fluorescence permeation assay, DOPC bilayer spanned over gold microcavity array", "protocol": "(§1) Following removal of PS spheres, if in place, washing and aqueous filling of the array a Langmuir monolayer of lipids was spread across the micropore array, using either a Model 102M, LB trough or Model KN2006 from KSV-NIMA technology, LB alternate. The lipid mixture (across single or diverse lipid compositions) was prepared in chloroform at a concentration of 1 mg/ml. 50 μL of this solution was suspended on the water sub-phase. Fifteen minutes were allocated for evaporation of the solvent, prior to lipid monolayer compression. […]\n(§2) A Horiba Labram HR instrument was used for both Raman and fluorescence measurements using a 50× long distance magnification objective (Leica). The wavelengths were typically 473 nm and 785 nm were used for fluorescence measurements and Raman measurements respectively. […] Typically a 1% neutral density filter and 300 μm slit were used for fluorescence and no filter for Raman. […]\n(§3) For drug/molecular diffusion studies, drug solutions were prepared as stock solutions for introduction into the bilayer contacting solution dissolved in PBS or Tris buffer at concentrations that permitted final concentrations (on contact with the bilayer buffer) of 1 nM to several millimolar. […] Drug diffusion samples were analysed by first obtaining a bilayer spectra while sample is immersed in PBS. […]"}, "[2]": {"experiment": "Metal enhanced fluorescence permeation assay, ternary domain forming lipid bilayer on gold microcavity array", "conditions": "0.1 mM", "protocol": "as §1, §2, §3"}, "[3]": {"experiment": "SERS permeation assay, DOPC lipid bilayer suspended over gold cavity array", "conditions": "1 um gold array, PBS buffer, 785 nm", "protocol": "as §1, §2, §3"}},
  "data": [
    {"smiles": "COc1cccc2c1C(=O)c1c(O)c3c(c(O)c1C2=O)C[C@@](O)(C(=O)CO)C[C@@H]3O[C@H]1C[C@H](N)[C@H](O)[C@H](C)O1", "note": "[Doxorubicin]", "values": [
      {"measurement": "permeation through DOPC bilayer (fluorescent peak area at 600 nm vs time)", "setting": "[1]; 0.1 mM, 2-hour monitoring, 1 μm diameter gold array", "result": "diffusing through the bilayer"}
    ]},
    {"smiles": "COc1cccc2c1C(=O)c1c(O)c3c(c(O)c1C2=O)C[C@@](O)(C(C)=O)C[C@@H]3O[C@H]1C[C@H](N)[C@H](O)[C@H](C)O1", "note": "[Duanorubicin]", "values": [
      {"measurement": "permeability of ternary lipid bilayer to the drug", "setting": "[2]; 2-hour window, two replicate measurements, DOPC:SM:Chol 40:40:20", "result": "impermeable"},
      {"measurement": "time for emission to reach steady state", "setting": "[2]; unstirred solution, ternary bilayer", "result": "less than 20 mins"}
    ]},
    {"smiles": "CC(C)Cc1ccc(C(C)C(=O)O)cc1", "note": "(centres unmarked) [Ibuprofen]", "values": [
      {"measurement": "permeability across DOPC bilayer (dynamics of evolution of SERS signal, presence vs absence of bilayer)", "setting": "[3]", "result": "passively permeable"}
    ]},
    {"smiles": "[Ru+2].c1ccc(-c2ccccn2)nc1.c1ccc(-c2ccccn2)nc1.c1ccc(-c2ccccn2)nc1", "note": "[[Ru(bpy)3[ complex]", "values": [
      {"measurement": "membrane permeability at DOPC bilayers (second emission rise and plateau)", "setting": "[1]; DOPC bilayers, fluorescence", "result": "impermeable"}
    ]}
  ]
}
